Our source for the IC50 values is patent US7964607B2, “Pyrazolo[3,4-d]pyrimidine compounds” (Pfizer Inc., priority 2007, dated 2011).

For this assay, the target named is T1, human recombinant PDE9 enzyme (Homo sapiens, UniProt O76083).
T1 construct: made in house; host or cells: SF-9 insect cells
T1 sequence (O76083 whole entry): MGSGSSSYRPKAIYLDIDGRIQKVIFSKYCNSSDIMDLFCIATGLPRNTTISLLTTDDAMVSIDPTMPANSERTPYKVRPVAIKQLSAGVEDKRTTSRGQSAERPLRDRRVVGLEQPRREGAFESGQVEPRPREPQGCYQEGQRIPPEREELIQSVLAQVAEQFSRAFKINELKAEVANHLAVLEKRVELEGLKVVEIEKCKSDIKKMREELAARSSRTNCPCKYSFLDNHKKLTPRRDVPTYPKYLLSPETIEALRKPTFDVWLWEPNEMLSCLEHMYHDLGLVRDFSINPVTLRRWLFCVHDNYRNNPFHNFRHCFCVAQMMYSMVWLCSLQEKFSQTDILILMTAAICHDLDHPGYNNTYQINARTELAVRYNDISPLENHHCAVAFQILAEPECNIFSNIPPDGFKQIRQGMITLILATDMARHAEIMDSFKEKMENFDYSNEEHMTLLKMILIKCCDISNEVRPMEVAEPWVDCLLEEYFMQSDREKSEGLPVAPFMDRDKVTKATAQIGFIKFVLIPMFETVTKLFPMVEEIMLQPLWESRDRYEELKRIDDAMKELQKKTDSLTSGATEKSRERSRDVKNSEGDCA
In words: Phosphodiesterase 9 (PDE9) inhibitory activity, Scintillation Proximity (SPA) assay. Conditions: human recombinant PDE9 from SF-9 cells; 50 nM [3H]cGMP; room temperature, 30 min; additional compounds Ex. 115-228; read-out: G5678A (U):IC50. The assay is classed as biochemical. Put shortly: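 Scintillation proximity read-out of [3H]cGMP hydrolysis after 30 min at room temperature, with enzyme addition starting the reaction. The enzyme was human recombinant PDE9 expressed in SF-9 cells, titrated to keep substrate turnover at 20% or less. Compound wells held 2% DMSO final, and background was defined with excess PDE inhibitor.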
For the compound `C[C@@H]1CN(Cc2cccc(Cl)c2Cl)C[C@H]1c1nc2c(cnn2C2CCCC2)c(=O)[nH]1` (racemic) [Example 164, 1-cyclopentyl-6-[(3,4-trans)-1-(2,3-dichlorobenzyl)-4-methylpyrrolidin-3-yl]-1,5-dihydro-4H-pyrazolo[3,4-d]pyrimidin-4-one], the IC50 was found to be 0.0789 µM.

Regarding `C[C@@H]1CN(Cc2nccs2)C[C@H]1c1nc2c(cnn2C2CCCC2)c(=O)[nH]1` (racemic) [Example 165, 1-cyclopentyl-6-[(3,4-trans)-4-methyl-1-(1,3-thiazol-2-ylmethyl)pyrrolidin-3-yl]-1,5-dihydro-4H-pyrazolo[3,4-d]pyrimidin-4-one], the IC50 came out at 0.0542 µM.

`Cc1c(F)cccc1CN1C[C@@H](C)[C@H](c2nc3c(cnn3C3CCCC3)c(=O)[nH]2)C1` (racemic) [Example 166, 1-cyclopentyl-6-[(3,4-trans)-1-(3-fluoro-2-methylbenzyl)-4-methylpyrrolidin-3-yl]-1,5-dihydro-4H-pyrazolo[3,4-d]pyrimidin-4-one]: the IC50 came to 0.0683 µM.

As for `Cc1ncc(CN2C[C@@H](C)[C@H](c3nc4c(cnn4C4CCCC4)c(=O)[nH]3)C2)cn1` (racemic) [Example 167, 1-cyclopentyl-6-{(3,4-trans)-4-methyl-1-[(2-methylpyrimidin-5-yl)methyl]pyrrolidin-3-yl}-1,5-dihydro-4H-pyrazolo[3,4-d]pyrimidin-4-one], the IC50 worked out at 0.0407 µM.

Turning to `CCc1ncc(CN2C[C@@H](C)[C@H](c3nc4c(cnn4C4CCCC4)c(=O)[nH]3)C2)cn1` (racemic) [Example 168, 1-cyclopentyl-6-{(3,4-trans)-1-[(2-ethylpyrimidin-5-yl)methyl]-4-methylpyrrolidin-3-yl}-1,5-dihydro-4H-pyrazolo[3,4-d]pyrimidin-4-one], the IC50 was determined as 0.0307 µM.

Turning to `CC(C)c1ccc(CN2C[C@@H](C)[C@H](c3nc4c(cnn4C4CCCC4)c(=O)[nH]3)C2)cc1` (racemic) [Example 169, 1-cyclopentyl-6-[(3,4-trans)-1-(4-isopropylbenzyl)-4-methylpyrrolidin-3-yl]-1,5-dihydro-4H-pyrazolo[3,4-d]pyrimidin-4-one], the IC50 is 0.117 µM.

In the case of `CCn1cc(CN2C[C@@H](C)[C@H](c3nc4c(cnn4C4CCCC4)c(=O)[nH]3)C2)cn1` (racemic) [Example 170, 1-cyclopentyl-6-{(3,4-trans)-1-[(1-ethyl-1H-pyrazol-4-yl)methyl]-4-methylpyrrolidin-3-yl}-1,5-dihydro-4H-pyrazolo[3,4-d]pyrimidin-4-one], the IC50 stood at 0.0746 µM.

Turning to `COc1ccncc1CN1C[C@@H](C)[C@H](c2nc3c(cnn3C3CCCC3)c(=O)[nH]2)C1` (racemic) [Example 171, 1-cyclopentyl-6-{(3,4-trans)-1-[(4-methoxypyridin-3-yl)methyl]-4-methylpyrrolidin-3-yl}-1,5-dihydro-4H-pyrazolo[3,4-d]pyrimidin-4-one], the IC50 is 0.0513 µM.

In the case of `C[C@@H]1CN(Cc2ccno2)C[C@H]1c1nc2c(cnn2C2CCCC2)c(=O)[nH]1` (racemic) [Example 172, 1-cyclopentyl-6-[(3,4-trans)-1-(isoxazol-5-ylmethyl)-4-methylpyrrolidin-3-yl]-1,5-dihydro-4H-pyrazolo[3,4-d]pyrimidin-4-one], the IC50 was 0.067 µM.

Consider `CCOc1ccc(CN2C[C@@H](C)[C@H](c3nc4c(cnn4C4CCCC4)c(=O)[nH]3)C2)cc1` (racemic) [Example 173], for which the IC50 amounted to 0.064 µM.

As for `C[C@@H]1CN(Cc2ccc(C(C)(C)O)nc2)C[C@H]1c1nc2c(cnn2C2CCCC2)c(=O)[nH]1` (racemic) [Example 174, 1-cyclopentyl-6-[(3,4-trans)-1-{[6-(1-hydroxy-1-methylethyl)pyridin-3-yl]methyl}-4-methylpyrrolidin-3-yl]-1,5-dihydro-4H-pyrazolo[3,4-d]pyrimidin-4-one], the IC50 was 0.042 µM.

For `C[C@@H]1CN(Cc2ccc3c(c2)CC(C)(C)O3)C[C@H]1c1nc2c(cnn2C2CCCC2)c(=O)[nH]1` (racemic) [Example 175, 1-cyclopentyl-6-{(3,4-trans)-1-[(2,2-dimethyl-2,3-dihydro-1-benzofuran-5-yl)methyl]-4-methylpyrrolidin-3-yl}-1,5-dihydro-4H-pyrazolo[3,4-d]pyrimidin-4-one], the IC50 stood at 0.0748 µM.

On to `COc1ccc(CN2C[C@@H](C)[C@H](c3nc4c(cnn4C4CCCC4)c(=O)[nH]3)C2)cc1OC` (racemic) [Example 176, 1-cyclopentyl-6-[(3,4-trans)-1-(3,4-dimethoxybenzyl)-4-methylpyrrolidin-3-yl]-1,5-dihydro-4H-pyrazolo[3,4-d]pyrimidin-4-one], for which the IC50 is 0.0271 µM.

On to `Cc1cnc(CN2C[C@@H](C)[C@H](c3nc4c(cnn4C4CCCC4)c(=O)[nH]3)C2)cn1` (racemic) [Example 177, 1-cyclopentyl-6-{(3,4-trans)-4-methyl-1-[(5-methylpyrazin-2-yl)methyl]pyrrolidin-3-yl)-1,5-dihydro-4H-pyrazolo[3,4-d]pyrimidin-4-one], for which the IC50 was 0.0422 µM.

For the compound `C[C@@H]1CN(Cc2cn3ccccc3n2)C[C@H]1c1nc2c(cnn2C2CCCC2)c(=O)[nH]1` (racemic) [Example 178, 1-cyclopentyl-6-[(3,4-trans)-1-(imidazo[1,2-a]pyridin-2-ylmethyl)-4-methylpyrrolidin-3-yl]-1,5-dihydro-4H-pyrazolo[3,4-d]pyrimidin-4-one], the IC50 stood at 0.0447 µM.

`C[C@@H]1CN(Cc2coc(-c3ccccc3)n2)C[C@H]1c1nc2c(cnn2C2CCCC2)c(=O)[nH]1` (racemic) [Example 179, 1-cyclopentyl-6-{(3,4-trans)-4-methyl-1-[(2-phenyl-1,3-oxazol-4-yl)methyl]pyrrolidin-3-yl}-1,5-dihydro-4H-pyrazolo[3,4-d]pyrimidin-4-one]: the IC50 was 0.0472 µM.

For `CC(C)Oc1ccccc1CN1C[C@@H](C)[C@H](c2nc3c(cnn3C3CCCC3)c(=O)[nH]2)C1` (racemic) [Example 181, 1-cyclopentyl-6-[(3,4-trans)-1-(2-isopropoxybenzyl)-4-methylpyrrolidin-3-yl]-1,5-dihydro-4H-pyrazolo[3,4-d]pyrimidin-4-one], the IC50 stood at 0.134 µM.

Regarding `C[C@@H]1CN(Cc2cc3ccccc3nn2)C[C@H]1c1nc2c(cnn2C2CCCC2)c(=O)[nH]1` (racemic) [Example 182, 6-[(3,4-trans)-1-(cinnolin-3-ylmethyl)-4-methylpyrrolidin-3-yl]-1-cyclopentyl-1,5-dihydro-4H-pyrazalo[3,4-d]pyrimidin-4-one], the IC50 was determined as 0.0225 µM.

In the case of `C[C@@H]1CN(Cc2cccc(OC(F)F)c2)C[C@H]1c1nc2c(cnn2C2CCCC2)c(=O)[nH]1` (racemic) [Example 183, 1-cyclopentyl-6-{(3,4-trans)-1-[3-(difluoromethoxy)benzyl]-4-methylpyrrolidin-3-yl}-1,5-dihydro-4H-pyrazolo[3,4-d]pyrimidin-4-one], the 50% inhibitory concentration (IC50) came out at 0.0298 µM.

For `Cc1cc(CN2C[C@@H](C)[C@H](c3nc4c(cnn4C4CCCC4)c(=O)[nH]3)C2)ccc1F` (racemic) [Example 184, 1-cyclopentyl-6-[(3,4-trans)-1-(4-fluoro-3-methylbenzyl)-4-methylpyrrolidin-3-yl]-1,5-dihydro-4H-pyrazolo[3,4-d]pyrimidin-4-one], the IC50 turned out to be 0.09 µM.

`C[C@@H]1CN(Cc2ccc(-n3cccn3)cc2)C[C@H]1c1nc2c(cnn2C2CCCC2)c(=O)[nH]1` (racemic) [Example 185, 1-cyclopentyl-6-{(3,4-trans)-4-methyl-1-[4-(1H-pyrazol-1-yl)benzyl]pyrrolidin-3-yl}-1,5-dihydro-4H-pyrazolo[3,4-d]pyrimidin-4-one]: the IC50 is 0.0335 µM.

In the case of `Cc1ccn2c(CN3C[C@@H](C)[C@H](c4nc5c(cnn5C5CCCC5)c(=O)[nH]4)C3)c(C)nc2c1` (racemic) [Example 186, 1-cyclopentyl-6-{(3,4-trans)-1-[(2,7-dimethylimidazo[1,2-a]pyridin-3-yl)methyl]-4-methylpyrrolidin-3-yl}-1,5-dihydro-4H-pyrazolo[3,4-d]pyrimidin-4-one], the IC50 came out at 0.155 µM.

On to `C[C@@H]1CN(Cc2cc(Cl)cc(Cl)c2)C[C@H]1c1nc2c(cnn2C2CCCC2)c(=O)[nH]1` (racemic) [Example 187, 1-cyclopentyl-6-[(3,4-trans)-1-(3,5-dichlorobenzyl)-4-methylpyrrolidin-3-yl]-1,5-dihydro-4H-pyrazolo[3,4-d]pyrimidin-4-one], for which the IC50 worked out at 0.0709 µM.

On to `CC(C)Oc1ccc(CN2C[C@@H](C)[C@H](c3nc4c(cnn4C4CCCC4)c(=O)[nH]3)C2)cc1` (racemic) [Example 188, 1-cyclopentyl-6-[(3,4-trans)-1-(4-isopropoxybenzyl)-4-methylpyrrolidin-3-yl]-1,5-dihydro-4H-pyrazolo[3,4-d]pyrimidin-4-one], for which the IC50 was found to be 0.0727 µM.

For the compound `C[C@@H]1CN(Cc2ccnc(C(C)(C)O)c2)C[C@H]1c1nc2c(cnn2C2CCCC2)c(=O)[nH]1` (racemic) [Example 189, 1-cyclopentyl-6-[(3,4-trans)-1-{[2-(1-hydroxy-1-methylethyl)pyridin-4-yl]methyl}-4-methylpyrrolidin-3-yl]-1,5-dihydro-4H-pyrazolo[3,4-d]pyrimidin-4-one], the IC50 is 0.0237 µM.

For `C[C@@H]1CN(Cc2nc3c(s2)CCCC3)C[C@H]1c1nc2c(cnn2C2CCCC2)c(=O)[nH]1` (racemic) [Example 190, 1-cyclopentyl-6-[(3,4-trans)-4-methyl-1-(4,5,6,7-tetrahydro-1,3-benzothiazol-2-ylmethyl)pyrrolidin-3-yl]-1,5-dihydro-4H-pyrazolo(3,4-d]pyrimidin-4-one], the IC50 was determined as 0.0554 µM.

In the case of `Cc1cc(C)c(CN2C[C@@H](C)[C@H](c3nc4c(cnn4C4CCCC4)c(=O)[nH]3)C2)c(C)c1` (racemic) [Example 191, 1-cyclopentyl-6-[(3,4-trans)-1-(mesitylmethyl)-4-methylpyrrolidin-3-yl]-1,5-dihydro-4H-pyrazolo[3,4-d]pyrimidin-4-one], the IC50 was 0.198 µM.
